Experimental findings from ChEMBL document CHEMBL5523723, “G Protein-Coupled Estrogen Receptor-Mediated Anti-Inflammatory and Mucosal Healing Activity of a Trimethylpyridinol Analogue in Inflammatory Bowel Disease” (J Med Chem, 2024) are described below.

Assay [1] can be described thus: Inhibition of IL6 induced adhesion of TPA treated human U-937 cells to human HT-29 cells at 1 uM pretreated with HT-29 for 1 hr followed by U-937 addition along with IL6 stimulation for 3 hrs by fluorescence based microplate reader assay relative to control. Format: functional. The following applies: time 4 hrs.
For assay [2], the system named is U-937. The assay can be described thus: Inhibition of TNFalpha induced adhesion of TPA treated human U-937 cells to human HT-29 cells at 1 uM pretreated with HT-29 for 1 hr followed by U-937 addition along with TNFalpha stimulation for 3 hrs by fluorescence based microplate reader assay relative to control. The following applies: time 4 hrs. Format: functional.

In assay [3] the test system is U-937. Briefly: Induction of apoptosis in human U-937 cells assessed as late apoptotic cells at 10 uM incubated for 24 hrs by Annexin V FITC/PI staining based flow cytometry analysis ( Rvb = 4 +/- 0.2%). Format: functional. On the technique in general: In flow cytometry, cells or beads pass a laser one at a time.
Assay [4] has as its system HT-29. Briefly: Induction of apoptosis in human HT-29 cells assessed as necrotic cells at 1 uM incubated for 24 hrs by Annexin V FITC/PI staining based flow cytometry analysis ( Rvb = 0.2%). Format: functional.
For assay [5], the system named is U-937. Briefly: Induction of apoptosis in human U-937 cells assessed as viable cells at 10 uM incubated for 24 hrs by Annexin V FITC/PI staining based flow cytometry analysis ( Rvb = 95.2 +/- 0.4%). Format: functional. The following applies: read-out: Activity.
Assay [6] concerns HT-29. The assay can be described thus: Inhibition of TNFalpha induced nuclear translocation of NF-kappaB in human HT-29 cells at 10 uM pretreated with for 3 hrs followed by TNFalpha addition by Western blotting analysis. Format: functional, cell-based. (In general: Immunoblotting shows a protein as a band on a membrane.)
For assay [7], the system named is HT-29. Briefly: Mucosal healing effect in TNFalpha induced human HT-29 cells assessed as decrease in epithelial permeability by measuring reduced […] FITC-dextran 4 level at 10 uM pretreated with compound and G1 for 3 hrs followed by TNFalpha addition and subsequent FD4 addition and measured after 2 hrs by fluorescence based assay. Format: functional, cell-based. The following applies: time 5.0 hrs.

Assay [8] concerns U-937. The assay can be described thus: Induction of apoptosis in human U-937 cells assessed as viable cells at 1 uM incubated for 24 hrs by Annexin V FITC/PI staining based flow cytometry analysis ( Rvb = 95.2 +/- 0.4%). Format: functional. The following applies: read-out: Activity.
Assay [9] concerns HT-29. Briefly: Induction of apoptosis in human HT-29 cells assessed as viable cells at 5 uM incubated for 24 hrs by Annexin V FITC/PI staining based flow cytometry analysis ( Rvb = 99 +/- 0.1%). The following applies: read-out: Activity. Format: functional.
The subject of assay [10] is U-937. The assay can be described thus: Induction of apoptosis in human U-937 cells assessed as early apoptotic cells at 1 uM incubated for 24 hrs by Annexin V FITC/PI staining based flow cytometry analysis ( Rvb = 0.6 +/- 0.1 %). Format: functional.
The subject of assay [11] is HT-29. The assay can be described thus: Induction of apoptosis in human HT-29 cells assessed as necrotic cells at 10 uM incubated for 24 hrs by Annexin V FITC/PI staining based flow cytometry analysis ( Rvb = 0.2%). Format: functional.
Assay [12] relates to U-937. Briefly: Induction of apoptosis in human U-937 cells assessed as late apoptotic cells at 1 uM incubated for 24 hrs by Annexin V FITC/PI staining based flow cytometry analysis ( Rvb = 4 +/- 0.2%). Format: functional.
Assay [13] concerns HT-29. The assay can be described thus: Inhibition of TNFalpha induced nuclear translocation of p-STAT3 in human HT-29 cells at 10 uM pretreated with for 3 hrs followed by TNFalpha addition by Western blotting analysis. Format: functional, cell-based.
Assay [14] relates to HT-29. The assay can be described thus: Induction of apoptosis in human HT-29 cells assessed as viable cells at 1 uM incubated for 24 hrs by Annexin V FITC/PI staining based flow cytometry analysis ( Rvb = 99 +/- 0.1%). Format: functional. The following applies: read-out: Activity.
Assay [15] has as its system HT-29. The assay can be described thus: Induction of apoptosis in human HT-29 cells assessed as early apoptotic cells at 10 uM incubated for 24 hrs by Annexin V FITC/PI staining based flow cytometry analysis ( Rvb = 0%). Format: functional.
The subject of assay [16] is HT-29. The assay can be described thus: Mucosal healing effect in TNFalpha induced human HT-29 cells assessed as decrease in epithelial permeability by measuring reduced […] FITC-dextran 4 level at 0.1 to 10 uM pretreated for 3 hrs followed by TNFalpha addition and subsequent FD4 addition and measured after 2 hrs by fluorescence based assay. Format: functional, cell-based. The following applies: dose 0.1-10 µM, time 5.0 hrs.

Assay [17] deals with U-937. The assay can be described thus: Induction of apoptosis in human U-937 cells assessed as necrotic cells at 10 uM incubated for 24 hrs by Annexin V FITC/PI staining based flow cytometry analysis( Rvb = 0.2 +/- 0.1%). Format: functional.
The subject of assay [18] is HT-29. Briefly: Induction of apoptosis in human HT-29 cells assessed as early apoptotic cells at 5 uM incubated for 24 hrs by Annexin V FITC/PI staining based flow cytometry analysis ( Rvb = 0%). Format: functional.
In assay [19] the test system is HT-29. Briefly: Induction of apoptosis in human HT-29 cells assessed as late apoptotic cells at 5 uM incubated for 24 hrs by Annexin V FITC/PI staining based flow cytometry analysis ( Rvb = 0.7%). Format: functional.
Assay [20] has as its system U-937. The assay can be described thus: Induction of apoptosis in human U-937 cells assessed as necrotic cells at 1 uM incubated for 24 hrs by Annexin V FITC/PI staining based flow cytometry analysis ( Rvb = 0.2 +/- 0.1%). Format: functional.
The subject of assay [21] is U-937. Briefly: Induction of apoptosis in human U-937 cells assessed as necrotic cells at 5 uM incubated for 24 hrs by Annexin V FITC/PI staining based flow cytometry analysis ( Rvb = 0.2 +/- 0.1%). Format: functional.
In assay [22] the test system is U-937. Briefly: Induction of apoptosis in human U-937 cells assessed as early apoptotic cells at 5 uM incubated for 24 hrs by Annexin V FITC/PI staining based flow cytometry analysis ( Rvb = 0.6 +/- 0.1 %). Format: functional.
The test system of assay [23] is U-937. The assay can be described thus: Induction of apoptosis in human U-937 cells assessed as early apoptotic cells at 10 uM incubated for 24 hrs by Annexin V FITC/PI staining based flow cytometry analysis ( Rvb = 0.6 +/- 0.1 %). Format: functional.
Assay [24] concerns HT-29. Briefly: Induction of apoptosis in human HT-29 cells assessed as early apoptotic cells at 1 uM incubated for 24 hrs by Annexin V FITC/PI staining based flow cytometry analysis ( Rvb = 0%). Format: functional.
Assay [25] has as its system HT-29. Briefly: Induction of apoptosis in human HT-29 cells assessed as viable cells at 10 uM incubated for 24 hrs by Annexin V FITC/PI staining based flow cytometry analysis ( Rvb = 99 +/- 0.1%). Format: functional. The following applies: read-out: Activity.
For assay [26], the system named is HT-29. The assay can be described thus: Induction of apoptosis in human HT-29 cells assessed as late apoptotic cells at 1 uM incubated for 24 hrs by Annexin V FITC/PI staining based flow cytometry analysis ( Rvb = 0.7%). Format: functional.
The subject of assay [27] is HT-29. The assay can be described thus: Induction of apoptosis in human HT-29 cells assessed as late apoptotic cells at 10 uM incubated for 24 hrs by Annexin V FITC/PI staining based flow cytometry analysis ( Rvb = 0.7%). Format: functional.
The test system of assay [28] is U-937. Briefly: Induction of apoptosis in human U-937 cells assessed as late apoptotic cells at 5 uM incubated for 24 hrs by Annexin V FITC/PI staining based flow cytometry analysis ( Rvb = 4 +/- 0.2%). Format: functional.
The subject of assay [29] is U-937. Briefly: Induction of apoptosis in human U-937 cells assessed as viable cells at 5 uM incubated for 24 hrs by Annexin V FITC/PI staining based flow cytometry analysis ( Rvb = 95.2 +/- 0.4%). The following applies: read-out: Activity. Format: functional.
Assay [30] relates to HT-29. The assay can be described thus: Induction of apoptosis in human HT-29 cells assessed as necrotic cells at 5 uM incubated for 24 hrs by Annexin V FITC/PI staining based flow cytometry analysis ( Rvb = 0.2%). Format: functional.

Calls of active or inactive are those of the source. The calls are words filed in the database; no cut-off is given here.

A word on the inhibition: it is the relative decrease from the control value, in per cent. As to `Cc1nc(NC(=O)c2ccc(Cl)cc2Cl)c(C)c(C)c1O`, the inhibition at 1 µM was 46.4% in assay [1] and 58.6% in the assay on U-937 [2].
For `Cc1nc(NC(=O)c2sc3ccccc3c2Cl)c(C)c(C)c1O`, in [1], the inhibition at 1 µM stood at 11.4%.
As to `COc1ccccc1C(=O)Nc1nc(C)c(O)c(C)c1C`, the inhibition at 1 µM in [1] turned out to be 44%; in the assay on U-937 [2], 58%.
The like results for `Nc1ccc(O)c(C(=O)O)c1` [MESALAMINE] were, in that order, 1.7% and 9.9%.
For `Cc1nc(NC(=O)c2cccc(F)c2)c(C)c(C)c1O`, in that order: 44.2% and 54.1%.
The like results for `Cc1ccc(C(=O)Nc2nc(C)c(O)c(C)c2C)cc1F` were, in that order, 59.5% and 68.2%.
For `Cc1nc(NC(=O)c2ccc3ccccc3c2)c(C)c(C)c1O`, the inhibition at 1 µM in assay [1] is 33.1%; with U-937 [2] it was 42.9%.
`Cc1nc(NC(=O)c2ccsc2)c(C)c(C)c1O`: the inhibition at 1 µM in [1] was determined as 19.3%; in the assay with U-937 [2] it was 11.5%.
For the compound `Cc1nc(NC(=O)c2cccs2)c(C)c(C)c1O`, the inhibition at 1 µM in assay [1] was found to be 61.6%.
Regarding `Cc1nc(NC(=O)c2ccoc2)c(C)c(C)c1O`, the inhibition at 1 µM in assay [1] stood at 54.1%; with U-937 [2] it was 60.3%.
Take `Cc1nc(NC(=O)c2ccccc2F)c(C)c(C)c1O`: the inhibition at 1 µM in [1] is 66.4%; in the assay on U-937 [2], 36.4%.
As to `CC(=O)c1ccc2c(c1)[C@@H]1C=CC[C@@H]1[C@H](c1cc3c(cc1Br)OCO3)N2`, the Activity with U-937 [3] was found to be 39.2%; in the assay with HT-29 [4], 1.3%; in the assay with U-937 [10] it was 7%; with HT-29 [11], 1%; in the assay with U-937 [12], 16.2%; with HT-29 [15], 4.3%. Also, the Activity in the assay with U-937 [17] was found to be 0.4%; with HT-29 [18], 2.9%; in the assay with HT-29 [19], 27.9%; in the assay with U-937 [20], 0.6%; in the assay on U-937 [21], 0.3%; in the assay with U-937 [22] it was 5.5%. In addition, the Activity with U-937 [23] is listed as 7.2%; in the assay on HT-29 [24], 1%; with HT-29 [26], 16.9%; in the assay on HT-29 [27], 33.3%; in the assay on U-937 [28], 28.2%; in the assay with HT-29 [30], 2.7%. Besides, the results for the viability at 10 µM in the assay with U-937 [5] and in the assay on HT-29 [25] were 53.2% and 61.4%, respectively. The inhibition result in the assay with HT-29 [6] and in the assay on HT-29 [13] was “Active” throughout. Moreover, the outcome in the assay on HT-29 [7] and in the assay with HT-29 [16] was Active. Further, the viability at 1 µM was found to be 76.2% with U-937 [8] and 80.9% in the assay on HT-29 [14]. Also, the viability at 5 µM in the assay on HT-29 [9] and in the assay with U-937 [29] was 66.6% throughout.
`Cc1ccccc1C(=O)Nc1nc(C)c(O)c(C)c1C`: the inhibition at 1 µM in assay [1] was found to be 41.5%; in the assay on U-937 [2], 47.3%.
For `Cc1cccc(C(=O)Nc2nc(C)c(O)c(C)c2C)c1`, in that order: 48.9% and 63.9%.
